Among the data in ChEMBL document CHEMBL1201862, “PubChem BioAssay data set” (2004) are AC50, IC50 and EC50 values, retold here.

Values joined by “and” are separate entries in the source; they are usually repeats but may differ in a detail not shown here. Equal values may be shown once. Active and inactive are the calls of the source. Some results are limits rather than exact numbers.

Assay [1] concerns the target FAD-linked sulfhydryl oxidase ALR (Homo sapiens, UniProt P55789). Description: ALR-catalysed DTT oxidation blockers – biochemical, H2O2 detection, luminescence, cherry-pick, dose response (AID 493248).
Assay [2] deals with H9c2. Description: cells. Format: functional, cell-based. Particulars: Rattus norvegicus, H9c2, Myocardium.
For assay [3], the target named is Large T antigen (Simian virus 40, UniProt P03070). Format: functional, Betapolyomavirus macacae.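 Further: Confirmatory-stage PubChem screen for compounds that inhibit SV40 T antigen.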
The nature of assay [4]: viability of PTEN-deleted HCT116 cells – cell-based, HCT116 PTEN knockout, dose response (AID 1047).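 Further: HCT116 colon tumor cells with PTEN knocked out; cells exposed to compound for 60 hours before readout; potency for loss of cell viability measured by luminescence.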 The assay is classed as functional.
A short description of assay [5]: viability of HCT116 lacking mutant beta-catenin – cell-based, human colon tumor, dose response (AID 1045).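 Further: HCT116 colon tumor cells with beta catenin knocked out; cells exposed to compound for 60 hours.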 Format: functional.
Assay [6] can be described thus: Trypanosoma cruzi growth suppression in host cells – NIH3T3 host cells, beta-gal luminescence, confirmation (AID 2044).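 Further: intracellular parasites grown in NIH/3T3 mouse fibroblasts as host cells; luminescent beta-galactosidase reporter signal from transgenic T. cruzi replicating inside host cells; inhibitors lower the luminescence signal.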 Format: functional, cell-based.
A short description of assay [7]: NIH3T3 cell viability loss – ATP luminescence, mouse fibroblasts, counter-screen, dose response (AID 2010).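 Further: cells exposed to compound for about 90 hours before reading.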 The assay is classed as functional, cell-based.
Assay [8] concerns the target T1, Ubiquitin-conjugating enzyme E2 N (Homo sapiens, UniProt P61088).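 Further: Dose-response confirmation in a TR-FRET assay detecting UBC13-driven polyubiquitin chain formation, inhibition measured.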
T1 sequence (P61088 whole entry): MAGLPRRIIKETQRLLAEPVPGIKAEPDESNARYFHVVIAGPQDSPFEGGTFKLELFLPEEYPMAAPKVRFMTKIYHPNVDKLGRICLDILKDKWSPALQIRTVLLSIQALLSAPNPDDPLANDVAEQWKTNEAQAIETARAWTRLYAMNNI
Format: functional.

Assay [9] addresses T2, Rac GTPase-activating protein 1 (Homo sapiens, UniProt Q9H0H5).
T2 sequence (Q9H0H5 whole entry): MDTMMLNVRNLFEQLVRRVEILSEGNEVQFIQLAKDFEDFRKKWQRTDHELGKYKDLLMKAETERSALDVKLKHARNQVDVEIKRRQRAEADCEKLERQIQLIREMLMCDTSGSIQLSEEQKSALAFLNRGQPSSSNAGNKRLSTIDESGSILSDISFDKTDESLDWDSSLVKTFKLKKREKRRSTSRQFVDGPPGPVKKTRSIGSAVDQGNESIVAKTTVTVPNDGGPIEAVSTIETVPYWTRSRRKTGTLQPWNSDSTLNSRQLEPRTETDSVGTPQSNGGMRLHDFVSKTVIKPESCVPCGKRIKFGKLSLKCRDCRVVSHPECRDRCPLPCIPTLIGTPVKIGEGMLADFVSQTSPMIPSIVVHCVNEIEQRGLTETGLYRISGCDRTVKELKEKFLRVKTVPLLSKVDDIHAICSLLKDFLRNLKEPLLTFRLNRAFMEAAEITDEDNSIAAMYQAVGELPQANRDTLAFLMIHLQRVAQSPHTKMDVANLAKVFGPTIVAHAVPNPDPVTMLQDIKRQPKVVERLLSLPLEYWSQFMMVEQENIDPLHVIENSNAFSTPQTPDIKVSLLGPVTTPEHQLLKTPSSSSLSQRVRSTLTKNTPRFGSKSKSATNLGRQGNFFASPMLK
Description: blockers of MgcRacGAP-driven Rac1 GTP hydrolysis – biochemical, ADP Hunter fluorescence, primary and confirmatory, confirmation (AID 624330). The assay is classed as functional.

For assay [10], the target named is T3, Heat shock factor protein 1 (Mus musculus, UniProt P38532).
T3 sequence (P38532 whole entry): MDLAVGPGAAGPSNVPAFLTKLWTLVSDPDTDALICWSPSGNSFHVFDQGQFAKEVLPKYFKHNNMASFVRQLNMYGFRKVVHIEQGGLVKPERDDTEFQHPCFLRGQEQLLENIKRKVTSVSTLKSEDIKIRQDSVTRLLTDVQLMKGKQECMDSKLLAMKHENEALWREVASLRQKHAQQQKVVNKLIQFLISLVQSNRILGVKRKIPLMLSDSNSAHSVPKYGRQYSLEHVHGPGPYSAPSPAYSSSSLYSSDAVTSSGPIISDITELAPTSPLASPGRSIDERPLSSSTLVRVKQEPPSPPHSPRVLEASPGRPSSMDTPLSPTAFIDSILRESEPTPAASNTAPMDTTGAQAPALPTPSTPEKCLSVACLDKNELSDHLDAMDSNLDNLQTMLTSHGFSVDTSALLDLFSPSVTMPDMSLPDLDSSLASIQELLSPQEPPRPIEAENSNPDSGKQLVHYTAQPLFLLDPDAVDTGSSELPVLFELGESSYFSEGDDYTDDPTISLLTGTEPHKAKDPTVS
Description: enhancement of HSF1-driven luciferase signal – cell-based, NIH3T3, luminescence, dose retest, confirmation (AID 435004).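 Further: stress induced by proteasome inhibitor MG132 added 30 min after compound; luciferase reporter driven by HSF1 response element in NIH3T3 cells; actives raise luminescence as potentiators of the MG132 stress response.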 Format: functional.

A short description of assay [11]: reduction of Shn3 3'UTR-driven luciferase in osteoblasts – cell-based, Clone20 osteoblasts, firefly luciferase, cherry-picked, dose response (AID 624132).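 Further: firefly luciferase luminescence from reporter carrying the Shn3 3'UTR in osteoblasts.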 Format: functional.

Chain of Large T antigen (P03070 whole entry): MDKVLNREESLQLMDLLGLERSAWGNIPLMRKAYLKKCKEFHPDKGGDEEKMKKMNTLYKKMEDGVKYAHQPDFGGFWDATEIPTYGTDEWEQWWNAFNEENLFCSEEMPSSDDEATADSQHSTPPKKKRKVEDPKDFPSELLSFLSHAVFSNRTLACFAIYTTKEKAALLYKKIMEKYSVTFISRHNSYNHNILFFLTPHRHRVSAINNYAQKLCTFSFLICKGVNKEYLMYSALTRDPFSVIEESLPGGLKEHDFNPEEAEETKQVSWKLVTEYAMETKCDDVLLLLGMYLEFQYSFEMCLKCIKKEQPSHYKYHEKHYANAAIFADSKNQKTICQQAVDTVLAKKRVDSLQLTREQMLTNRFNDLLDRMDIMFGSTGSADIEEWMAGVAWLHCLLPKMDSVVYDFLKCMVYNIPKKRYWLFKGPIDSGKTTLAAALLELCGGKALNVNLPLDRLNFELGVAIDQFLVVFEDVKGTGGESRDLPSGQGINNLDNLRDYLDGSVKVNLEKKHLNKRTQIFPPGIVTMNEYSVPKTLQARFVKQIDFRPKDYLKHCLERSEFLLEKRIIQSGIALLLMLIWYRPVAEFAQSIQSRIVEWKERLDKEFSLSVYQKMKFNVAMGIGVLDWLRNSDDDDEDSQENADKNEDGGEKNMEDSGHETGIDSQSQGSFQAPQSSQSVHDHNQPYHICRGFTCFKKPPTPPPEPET
Chain of FAD-linked sulfhydryl oxidase ALR (P55789 whole entry): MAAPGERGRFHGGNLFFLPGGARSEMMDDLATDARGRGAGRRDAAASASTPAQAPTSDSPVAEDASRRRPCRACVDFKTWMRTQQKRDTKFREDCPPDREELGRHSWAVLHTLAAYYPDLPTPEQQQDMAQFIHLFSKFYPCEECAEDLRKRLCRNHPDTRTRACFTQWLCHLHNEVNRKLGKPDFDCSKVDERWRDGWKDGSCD

In general, AC50 refers to the concentration at which the activity in the assay is half-maximal. For the compound `O=C(NCCSc1c[nH]c2ccccc12)C1CC1`, the AC50 in assay [1] is 8.01 µM (active).

For the compound `CCCCNC(=O)c1onc(CSc2ccc(C)c(C)c2)c1C(=O)O`, in assay [1], the AC50 is 8.26 µM (active).

As to `O=C(C[N+]1=C2SC=C(c3ccccc3)N2CC1)c1ccc(Br)cc1`, the AC50 in [1] was 0.221 µM (active).

As to `O=S(=O)(NNc1ccc(F)cc1F)c1cccc(Cl)c1`, the AC50 in assay [1] was 1.35 µM (active).

A word on the IC50: it is the concentration at which inhibition is half-maximal. Take `CC(=O)Oc1ccc(C(=O)OCC(=O)c2c(N)n(C)c(=O)n(C)c2=O)cc1OC(C)=O`: the half-maximal inhibitory concentration (IC50) was 6.29 µM (active) in assay [2] and 8.56 µM (active) in assay [3].

For orientation: EC50 means the concentration that produces a half-maximal response. For the compound `CCN(CC)S(=O)(=O)c1cc(C(=O)Nc2cc(Cl)ccc2N2CCN(C)CC2)ccc1Cl`, the concentration for a half-maximal effect (EC50) was 13.3 µM (active) in assay [4] and 15.8 µM (active) in assay [5].

Regarding `Cc1ccc(C23CC4CC(CC(NC(=O)NCCN(C)C)(C4)C2)C3)cc1`, the EC50 was 0.948 µM (active) in [6], 20.9 µM (active) in [4], 17.9 µM (active) in assay [5] and > 60 µM (not active) in assay [7].

Turning to `Cc1cccc2sc(N(CCN3CCOCC3)C(=O)CCS(=O)(=O)c3ccccc3)nc12`, the IC50 in [8] was > 20 µM (inactive).

In the case of `CN(C)c1ccc(NS(=O)(=O)c2ccc(Cl)cc2)cc1`, the IC50 in [3] is 11.7 µM (active); in assay [9], 30.6 µM (active).

Take `Cc1cccc(OCC(O)CN2CCN(CCN3C(=O)c4cccc5cccc(c45)C3=O)CC2)c1C` (centres undefined): the EC50 was 2.14 µM (active) in assay [6] and 8.54 µM (active) in [7]. The IC50 in assay [8] is > 20 µM (inactive).

On to `CC(=O)N1CCC2(CC1)NC(=O)N(c1ccccc1)N2`, for which the concentration at half-maximal activity (AC50) in assay [1] is 5 µM (active). The concentration for a half-maximal effect (EC50) in assay [10] was 136 µM (active).

On to `Cc1ccnc(-n2c(C)cc(/C=C3\C(=O)NC(=S)N(C)C3=O)c2C)c1`, for which the values for the concentration giving a half-maximal response (EC50) in assay [4] and in [5] were 95.3 µM (active) and 65.8 µM (active), respectively.

Consider `Cc1ccc(S(=O)(=O)N2CCCC(C(=O)NNCC(=O)Nc3cc(F)ccc3F)C2)cc1` (centres undefined), for which, in assay [8], the IC50 is > 20 µM (inactive).

Regarding `O=C(NCCCn1ccnc1)c1nn2c(C(F)(F)F)cc(-c3ccc(Br)cc3)nc2c1Cl`, the concentration for a half-maximal effect (EC50) in assay [4] was 16.8 µM (active); in [5], 33.2 µM (active).

With `Cc1ccc[n+](CC(=O)Nc2ccc(N(C)C)cc2)c1`, the IC50 in assay [9] was 113 µM (active). For the same compound, the AC50 in assay [1] is 2.2 µM (active).

As to `Cc1ccc(OC(=O)CCC(=O)Oc2ccc(C)cc2C)c(C)c1`, the AC50 in [11] is 3.51 µM (active).

Consider `Cc1ccc(C)c(S(=O)(=O)Nc2ccc(-n3cnnn3)cc2)c1`, for which the AC50 in [11] was > 70 µM (inactive).

On to `COc1ccccc1NC(=O)c1c(/N=C/c2c(O)ccc3ccccc23)cnn1C`, for which the IC50 in assay [8] was > 20 µM (inactive).

As for `Oc1ccc(N/C(S)=N/c2ccccc2)cc1`, the IC50 is 5.61 µM (active) and 8.33 µM (active) in assay [3]; 32.9 µM (active) in [9]. Moreover, the EC50 in assay [10] was > 260 µM (inactive).

`COc1cc(/C=N/NC(=O)C(C)n2nnc3ccccc32)ccc1O` (centres undefined): the IC50 is 19.8 µM (active) in assay [3] and 25.5 µM (active) in assay [9]. In assay [1], the half-maximal activity concentration (AC50) is 0.332 µM (active).

Consider `Sc1nnc(-c2[nH]nc3c2CCC3)n1/N=C/C=C/c1ccco1`, for which, in assay [3], the IC50 was 18.1 µM (active).

On to `OC1=C(/C=N/c2ccc(O)cc2)CCCC1`, for which the IC50 in assay [3] is 6.66 µM (active); in assay [9] it was 12.5 µM (active).
